Measured values taken from patent US8362010B2, “Benzenesulfonanilide compounds suitable for treating disorders that respond to modulation of the serotonin 5-HT6 receptor” (Abbott GmbH & Co. KG, priority 2009, dated 2013).
Structures can show the parent of a compound that is named as a salt.

What follows are molecules tested against T1, h-5-HT6 receptor (Homo sapiens, UniProt P50406) (assay: 5-HT6 receptor binding assay (displacement of [3H]-LSD)). Conditions: membranes of HEK293 cells expressing h-5-HT6; 1 nM [3H]-LSD.
T1 construct: expressed in transfected cells; host or cells: HEK293
T1 sequence (P50406 whole entry): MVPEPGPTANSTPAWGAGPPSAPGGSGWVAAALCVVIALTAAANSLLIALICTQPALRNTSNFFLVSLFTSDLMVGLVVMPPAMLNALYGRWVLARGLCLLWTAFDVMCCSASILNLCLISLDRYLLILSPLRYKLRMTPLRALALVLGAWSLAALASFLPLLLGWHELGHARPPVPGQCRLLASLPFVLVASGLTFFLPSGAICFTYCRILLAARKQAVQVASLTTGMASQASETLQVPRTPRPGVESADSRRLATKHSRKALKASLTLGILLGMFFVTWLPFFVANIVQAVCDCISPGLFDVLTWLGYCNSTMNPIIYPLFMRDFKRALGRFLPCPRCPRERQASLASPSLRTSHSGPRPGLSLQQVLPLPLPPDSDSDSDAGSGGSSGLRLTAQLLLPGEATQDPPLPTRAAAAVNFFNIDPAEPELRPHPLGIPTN
Procedure: Displacement of radioligands binding to the following cloned human receptors
Cells from stable clonal cell lines expressing the corresponding receptor (5-HT6, α1-adrenergic, dopamine D2 or histamine H1 receptors) were washed with PBS (w/o Ca^++, Mg^++) and harvested in PBS with 0.02% EDTA. […] The pellets were stored at −80° C. until use. For membrane preparation, the thawed cell pellet was resuspended in ice-cold sucrose buffer (0.25 M sucrose, 10 mM Hepes (pH 7.4), 1 mM Phenylmethylsulfonyl fluoride (PMSF) in DMSO, 5 μg/ml Pepstatin-A, 3 mM EDTA, 0.025% Bacitracin) and homogenized with a Branson Sonifier W-250 (Settings: Timer 4; Output Control 3; Duty Cycle constant; 2 to 3 cycles). Cell disruption was checked with the aid of a microscope. […] The sucrose buffer supernatant was then centrifuged at 60.000 g for 1 h at 4° C. (Beckman Ultrazentrifuge XL 80). The pellet was resuspended in 30 ml ice-cold Tris buffer (20 mM TRIS (pH 7.4), 5 μg/ml Pepstatin A, 0.1 mM PMSF, 3 mM EDTA) by pipetting through a 10 ml serological pipet and centrifuged for 1 h at 4° C. at 60.000 g. A final resuspension was performed in a small volume of ice-cold Tris buffer (see above) by pressing through a serological pipet followed by ultrasonic treatment with a Branson Sonifier W-250 (Settings: Timer 1; Output Control 3; Duty Cycle constant; 1 cycle). Protein concentration was determined (BCA-Kit; Pierce) and aliquots stored at −80° C. or in liquid nitrogen for long-term storage.
All receptor binding experiments were carried out in the corresponding assay buffer in a total volume of 200 μl in the presence of various concentrations of test compound (10^−5 M to 10^−9 M, tenfold serial dilution, duplicate determinations). The assays were terminated by filtration on polyethylenimine (PEI 0.1% or 0.3%) presoaked Packard Unifilter Plates (GF/C or GF/B) with a Tomtec MachIII U 96 well-plate harvester. After the plates had been dried for 2 h at 55° C. in a drying chamber scintillation cocktail (BetaPlate Scint; PerkinElmer) was added. Radioactivity was measured in a Microbeta Trilux two hours after the addition of the scintillation mixture. Data derived from liquid scintillation counting were analysed by iterative non-linear regression analysis with the use of the Statistical Analysis System (SAS): a program similar to “LIGAND” as described by Munson and Rodbard (Analytical Biochemistry 107, 220-239 (1980). […]
Data derived from liquid scintillation counting were analyzed by iterative non-linear regression analysis with the use of the Statistical Analysis System (SAS): a program similar to “LIGAND” as described by Munson and Rodbard (Anal. Biochem. 1980, 107, 220-239). […] IC50, nH and Ki values were expressed as geometrical mean.
COc1ccc(NS(=O)(=O)c2cccc(OC(F)F)c2)cc1N1CCCNCC1 [Example 1, N-(3-[1,4]Diazepan-1-yl-4-methoxy-phenyl)-3-difluoromethoxy-benzenesulfonamide hydrochloride] showed a Ki of less than 10 nM.
Cc1ccc(NS(=O)(=O)c2cccc(OC(F)F)c2)cc1N1CCCNCC1 [Example 7, N-(3-[1,4]Diazepan-1-yl-4-methyl-phenyl)-3-difluoromethoxy-benzenesulfonamide hydrochloride] was tested, and the Ki was less than 50 nM.
In the case of Cc1ccc(NS(=O)(=O)c2ccccc2OC(F)F)cc1N1CCCN(C)CC1 [Example 8, 2-Difluoromethoxy-N-[4-methyl-3-(4-methyl-[1,4]diazepan-1-yl)-phenyl]-benzenesulfonamide hydrochloride], the Ki is reported as less than 10 nM.
COc1ccc(NS(=O)(=O)c2ccccc2OC(F)F)cc1N1CCCNCC1 [Example 3, N-(3-[1,4]Diazepan-1-yl-4-methoxy-phenyl)-2-difluoromethoxy-benzenesulfonamide hydrochloride] was tested, and the Ki was less than 10 nM.
